Data on 5 molecules can be found in US20150374673A1, “Combination Therapy for the Treatment of Nosocomial Pneumonia” (priority 2013, published 2015).

Where two headings read alike, the source gives them in different places.

The test system of test [1] is S. aureus. Briefly: Initial MIC, microbroth dilution (CLSI), avibactam 4 mg/L. It is filed as cell-based. The text has this: (§1) All MIC determinations including those performed in the checkerboard assay were done in cation-adjusted Mueller-Hinton broth (purchased from Becton Dickinson, Oxford UK). […]
In the next test the test system is E. cloacae. Described as above. It is filed as cell-based.
Description: as §1

The subject of another test is E. faecalis. The description is as above. It is filed as cell-based.
Description: as §1

Another test has as its system E. coli. Described as above. In kind it is cell-based.
Description: as §1

A further test has as its system P. aeruginosa. The description is as above. It is filed as cell-based. As to the method:
(§2) All MIC determinations including those performed in the checkerboard assay were done in cation-adjusted Mueller-Hinton broth (purchased from Becton Dickinson, Oxford UK).
(§3) Initial MIC data were determined by microbroth dilution methods as recommended by CLSI (2012b). Checkerboards were made in accordance with the method given by Pillai et. al., ? Antimicrobial Combinations in Antibiotics, LABORATORY MEDICINE (Lorian Ed., 3rd Ed. (2003)) p. 365-440 as per standard microbroth dilution tests but with agents in combination. […] A final avibactam concentration of 4 mg/L was used throughout the study. Antibacterial agents were combined into microtitre plates using the Evolution III liquid handling system.

Another test deals with K. pneumoniae. The test is described as above. It is filed as cell-based. As to the method: as §2, §3
Test [2] relates to S. aureus. The test can be described thus: MIC, CLSI broth microdilution in CAMHB with 0-10% pulmonary surfactant (avibactam fixed at 4 μg/mL in combination). It is filed as cell-based, Staphylococcus aureus. The following applies: for MIC: Staphylococcus aureus, read-out: MIC. The procedure: The bacterial strains used in this testing were part of the microbiological culture collection housed at AstraZeneca R&D Boston (AstraZeneca Research Collection, designated ARC). The panel of bacterial isolates used for this testing was comprised of five CLSI QC reference strains and the remainder were either recent clinical isolates expressing β-lactamases or isolates from the primary bacterial screening panels.
MIC values were determined using the CLSI broth microdilution methodology with slight variation. Stock compound mother plates were prepared and used to spot 2 μL aliquots of serial 2-fold drug dilutions to columns 1-11 of 96-well daughter plates using a Perkin-Elmer MiniTrak™ MultiPosition dispenser. […] An inoculum volume of 100 μL (5×10E^5 CFU/mL) in CAMHB containing 0, 1, 2.5, 5, or 10% pulmonary surfactant was added using a multichannel Finnpipette® to each well of the 96-well plate.
The minimum inhibitory concentration (MIC) values against each organism/drug combination were determined using broth microdilution methodology according to CLSI guidelines. The recommended reference bacterial strains for each test group and reference compounds were incorporated into each test. For Gram-negatives, the reference bacterial strains were Escherichia coli ATCC 25922, E. coli ATCC 35218, Klebsiella pneumoniae ATCC 700603, and Pseudomonas aeruginosa ATCC 27853. Staphylococcus aureus ATCC 29213 was the reference bacterial strain for the Gram-positives.
MIC values for individual isolates were read visually. The MICs for each compound or combination in pulmonary surfactant was compared to the compound or combination tested in CAMHB alone.

Where [3] appears, read: isolate 23 S. aureus Basal MICs, Penicillinase+.
The mark [4] stands for this setting: isolate 24 S. aureus Basal MICs, Penicillinase+.

Take `CN(C)c1cc(NC(=O)CNC(C)(C)C)c(O)c2c1C[C@H]1C[C@H]3[C@H](N(C)C)C(O)=C(C(N)=O)C(=O)[C@@]3(O)C(O)=C1C2=O` [Tigecycline]: the MIC in the test on S. aureus [1] (Staphylococcus aureus) is 0.12 µg/mL; in the test on S. aureus [1] (setting [3]), 0.12 µg/mL; in the test on S. aureus [1] (setting [4]), 0.12 µg/mL; in the test on E. cloacae (Enterobacter cloacae, isolate 1 E. cloacae Basal MICs, read-out: MIC), 0.5 µg/mL; with E. cloacae (Enterobacter cloacae, isolate 2 E. cloacae Derepressed AmpC) it was 1 µg/mL; in the test on E. cloacae (Enterobacter cloacae, isolate 3 E. cloacae Derepressed AmpC), 0.5 µg/mL. Moreover, the MIC is 0.06 µg/mL with E. faecalis (Enterococcus faecalis); 0.06 µg/mL in the test on E. faecalis (isolate 26 E. faecalis Basal MICs); 0.06 µg/mL in the test on E. faecalis (isolate 27 E. faecalis Basal MICs); 0.12 µg/mL in the test with E. coli (Escherichia coli, isolate 4 E. coli Basal MICs, read-out: MIC); 0.25 µg/mL in the test with E. coli (Escherichia coli, isolate 5 E. coli CTX-M-15); 0.5 µg/mL in the test on E. coli (Escherichia coli, isolate 6 E. coli TEM-4). The MIC with E. coli (Escherichia coli, isolate 7 E. coli SHV-12) is 0.5 µg/mL; in the test with E. coli (Escherichia coli, isolate 8 E. coli SHV-2) it was 0.25 µg/mL; with P. aeruginosa (Pseudomonas aeruginosa, isolate 16 P. aeruginosa Basal MICs, read-out: MIC), 16 µg/mL; in the test with P. aeruginosa (Pseudomonas aeruginosa, isolate 17 P. aeruginosa Derepressed AmpC), 32 µg/mL; in the test with P. aeruginosa (Pseudomonas aeruginosa, isolate 18 P. aeruginosa Derepressed AmpC), 32 µg/mL; in the test on P. aeruginosa (Pseudomonas aeruginosa, isolate 19 P. aeruginosa PER, read-out: MIC), 32 µg/mL. In addition, the MIC with P. aeruginosa (Pseudomonas aeruginosa, isolate 20 P. aeruginosa KPC-2) turned out to be 16 µg/mL; with P. aeruginosa (Pseudomonas aeruginosa, isolate 21 P. aeruginosa KPC-2) it was 2 µg/mL; in the test with K. pneumoniae (Klebsiella pneumoniae, isolate 9 K. pneumoniae Basal MICs, read-out: MIC), 0.25 µg/mL; in the test with K. pneumoniae (Klebsiella pneumoniae, isolate 10 K. pneumoniae TEM-4) it was 0.25 µg/mL; in the test on K. pneumoniae (Klebsiella pneumoniae, isolate 11 K. pneumoniae CTX-M-15), 1 µg/mL; with K. pneumoniae (Klebsiella pneumoniae, isolate 12 K. pneumoniae SHV-12), 0.5 µg/mL. Besides, the MIC in the test on K. pneumoniae (Klebsiella pneumoniae, isolate 13 K. pneumoniae KPC-3) was found to be 1 µg/mL; in the test with K. pneumoniae (Klebsiella pneumoniae, isolate 14 K. pneumoniae KPC-3) it was 0.25 µg/mL; in the test on K. pneumoniae (Klebsiella pneumoniae, isolate 15 K. pneumoniae KPC-2), 0.5 µg/mL.
Consider `CC(=O)NC[C@H]1CN(c2ccc(N3CCOCC3)c(F)c2)C(=O)O1` [Linezolid], for which the MIC came out at 2 µg/mL in the test with S. aureus [1] (Staphylococcus aureus, isolate 22 S. aureus Basal MICs, read-out: MIC); 2 µg/mL in the test on S. aureus [1] (Staphylococcus aureus, isolate 23 S. aureus Basal MICs, Penicillinase+, read-out: MIC); 2 µg/mL in the test on S. aureus [1] (Staphylococcus aureus, isolate 24 S. aureus Basal MICs, Penicillinase+, read-out: MIC); 1 µg/mL in the test on E. faecalis (Enterococcus faecalis, isolate 25 E. faecalis Basal MICs, read-out: MIC); 2 µg/mL in the test with E. faecalis (Enterococcus faecalis, isolate 26 E. faecalis Basal MICs, read-out: MIC); 2 µg/mL in the test on E. faecalis (Enterococcus faecalis, isolate 27 E. faecalis Basal MICs, read-out: MIC).
In the case of `CN[C@H](CC(C)C)C(=O)N[C@H]1C(=O)N[C@@H](CC(N)=O)C(=O)N[C@H]2C(=O)N[C@H]3C(=O)N[C@H](C(=O)N[C@H](C(=O)O)c4cc(O)cc(O)c4-c4cc3ccc4O)[C@H](O)c3ccc(c(Cl)c3)Oc3cc2cc(c3O[C@@H]2O[C@H](CO)[C@@H](O)[C@H](O)[C@H]2O[C@H]2C[C@](C)(N)[C@H](O)[C@H](C)O2)Oc2ccc(cc2Cl)[C@H]1O` [Vancomycin], the minimum inhibitory concentration (MIC) was determined as 1 µg/mL in the test with S. aureus [1] (Staphylococcus aureus); 1 µg/mL with S. aureus [1] (setting [3]); 1 µg/mL in the test with S. aureus [1] (setting [4]); 1 µg/mL in the test with E. faecalis (Enterococcus faecalis, isolate 25 E. faecalis Basal MICs); 2 µg/mL in the test on E. faecalis (Enterococcus faecalis, isolate 26 E. faecalis Basal MICs); 2 µg/mL in the test on E. faecalis (Enterococcus faecalis, isolate 27 E. faecalis Basal MICs).
As for Colistin, the MIC with E. cloacae (isolate 1 E. cloacae Basal MICs) turned out to be 0.25 µg/mL; in the test on E. cloacae (isolate 2 E. cloacae Derepressed AmpC), 0.25 µg/mL; in the test with E. cloacae (isolate 3 E. cloacae Derepressed AmpC), 0.25 µg/mL; with E. coli (isolate 4 E. coli Basal MICs), 0.25 µg/mL; in the test with E. coli (isolate 5 E. coli CTX-M-15) it was 0.5 µg/mL; in the test on E. coli (isolate 6 E. coli TEM-4) it was 0.25 µg/mL. The MIC with E. coli (isolate 7 E. coli SHV-12) worked out at 0.5 µg/mL; in the test with E. coli (isolate 8 E. coli SHV-2) it was 0.25 µg/mL; in the test with P. aeruginosa (isolate 16 P. aeruginosa Basal MICs), 1 µg/mL; with P. aeruginosa (isolate 17 P. aeruginosa Derepressed AmpC), 0.5 µg/mL; in the test on P. aeruginosa (isolate 18 P. aeruginosa Derepressed AmpC) it was 1 µg/mL; in the test with P. aeruginosa (isolate 19 P. aeruginosa PER), 1 µg/mL. Besides, the MIC in the test on P. aeruginosa (isolate 20 P. aeruginosa KPC-2) was determined as 1 µg/mL; with P. aeruginosa (isolate 21 P. aeruginosa KPC-2), 2 µg/mL; in the test on K. pneumoniae (isolate 9 K. pneumoniae Basal MICs), 0.25 µg/mL; with K. pneumoniae (isolate 10 K. pneumoniae TEM-4) it was 0.5 µg/mL; in the test with K. pneumoniae (isolate 11 K. pneumoniae CTX-M-15), 0.25 µg/mL; with K. pneumoniae (isolate 12 K. pneumoniae SHV-12), 0.25 µg/mL. Also, the MIC in the test with K. pneumoniae (isolate 13 K. pneumoniae KPC-3), in the test on K. pneumoniae (isolate 14 K. pneumoniae KPC-3) and with K. pneumoniae (isolate 15 K. pneumoniae KPC-2) was 0.25 µg/mL in each case.
With `CCCCCCCCCC(=O)N[C@@H](Cc1c[nH]c2ccccc12)C(=O)N[C@H](CC(N)=O)C(=O)N[C@@H](CC(=O)O)C(=O)N[C@@H]1C(=O)NCC(=O)N[C@@H](CCCN)C(=O)N[C@@H](CC(=O)O)C(=O)N[C@H](C)C(=O)N[C@@H](CC(=O)O)C(=O)NCC(=O)N[C@H](CO)C(=O)N[C@@H]([C@H](C)CC(=O)O)C(=O)N[C@@H](CC(=O)c2ccccc2N)C(=O)O[C@@H]1C` [daptomycin], the “MIC increase in pulmonary surfactant” value in the test on S. aureus [2] (S. aureus, 1% pulmonary surfactant) was found to be 32 fold. In addition, the MIC with S. aureus [2] (ATCC29213, S. aureus ARC12 (CLSI QC strain, ATCC 29213), surfactant 0%) is 0.5 µg/mL; in the test with S. aureus [2] (ATCC29213, S. aureus ARC12 (CLSI QC strain, ATCC 29213), surfactant 1%) it was 16 µg/mL; with S. aureus [2] (ATCC29213, S. aureus ARC12 (CLSI QC strain, ATCC 29213), surfactant 2.5%) it was 64 µg/mL; in the test on S. aureus [2] (ATCC29213, S. aureus ARC12 (CLSI QC strain, ATCC 29213), surfactant 5%) it was above 64 µg/mL; in the test with S. aureus [2] (ATCC29213, S. aureus ARC12 (CLSI QC strain, ATCC 29213), surfactant 10%), 64 µg/mL; in the test with S. aureus [2] (MRSA, S. aureus ARC516 (MRSA, quinolone-resistant), surfactant 0%), 0.5 µg/mL. In addition, the minimal inhibitory concentration (MIC) is 16 µg/mL in the test on S. aureus [2] (MRSA, S. aureus ARC516 (MRSA, quinolone-resistant), surfactant 1%); 64 µg/mL in the test with S. aureus [2] (MRSA, S. aureus ARC516 (MRSA, quinolone-resistant), surfactant 2.5%); above 64 µg/mL in the test on S. aureus [2] (MRSA, S. aureus ARC516 (MRSA, quinolone-resistant), surfactant 5%); above 64 µg/mL with S. aureus [2] (MRSA, S. aureus ARC516 (MRSA, quinolone-resistant), surfactant 10%).
